In the Kinase Knowledgebase extract (Sharma et al. 2016):

Target: EGFR (human) (UniProt P00533)
Settings: a431

Chain of EGFR (human) (P00533 whole entry, looked up): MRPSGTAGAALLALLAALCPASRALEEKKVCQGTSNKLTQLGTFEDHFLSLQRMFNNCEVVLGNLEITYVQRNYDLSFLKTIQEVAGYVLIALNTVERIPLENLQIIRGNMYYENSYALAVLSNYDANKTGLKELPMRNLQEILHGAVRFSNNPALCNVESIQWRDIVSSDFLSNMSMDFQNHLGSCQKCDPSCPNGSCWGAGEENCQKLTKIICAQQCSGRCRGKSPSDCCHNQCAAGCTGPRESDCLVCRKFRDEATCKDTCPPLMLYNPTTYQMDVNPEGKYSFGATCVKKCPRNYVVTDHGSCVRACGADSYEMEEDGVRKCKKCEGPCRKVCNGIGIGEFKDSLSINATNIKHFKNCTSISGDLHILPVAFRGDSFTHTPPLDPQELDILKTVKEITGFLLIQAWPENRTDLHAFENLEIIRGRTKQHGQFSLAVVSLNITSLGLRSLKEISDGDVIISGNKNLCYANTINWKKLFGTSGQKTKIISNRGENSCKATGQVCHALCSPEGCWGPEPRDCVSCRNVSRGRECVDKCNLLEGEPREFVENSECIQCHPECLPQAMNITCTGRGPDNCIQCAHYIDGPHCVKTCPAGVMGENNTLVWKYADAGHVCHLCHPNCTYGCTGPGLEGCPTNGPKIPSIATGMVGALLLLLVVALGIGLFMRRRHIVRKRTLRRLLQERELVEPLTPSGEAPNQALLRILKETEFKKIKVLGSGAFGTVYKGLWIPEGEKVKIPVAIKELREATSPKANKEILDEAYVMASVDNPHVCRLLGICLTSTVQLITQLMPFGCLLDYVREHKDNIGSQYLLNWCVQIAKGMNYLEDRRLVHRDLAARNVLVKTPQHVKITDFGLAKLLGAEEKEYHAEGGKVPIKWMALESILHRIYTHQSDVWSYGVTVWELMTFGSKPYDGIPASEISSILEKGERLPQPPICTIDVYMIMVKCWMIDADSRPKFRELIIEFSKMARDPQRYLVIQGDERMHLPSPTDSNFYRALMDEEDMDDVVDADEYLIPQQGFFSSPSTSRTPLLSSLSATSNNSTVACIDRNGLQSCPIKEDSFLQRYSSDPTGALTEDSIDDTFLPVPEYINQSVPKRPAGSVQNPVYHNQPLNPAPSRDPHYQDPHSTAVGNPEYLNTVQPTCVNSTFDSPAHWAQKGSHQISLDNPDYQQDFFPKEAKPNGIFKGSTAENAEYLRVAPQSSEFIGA

| Compound | IC50 |
| --- | --- |
| Cc1cccc(Nc2ncnc3c2ccc2ccccc23)c1 | > 10 µM |
| CS(=O)(=O)Nc1cccc(Nc2ncnc3cc4c(cc23)OCCO4)c1 | > 10 µM |
| Cc1cccc(Nc2ncnc3cc4c(cc23)OCO4)n1 | > 10 µM |
| Cn1c(=O)n(C)c2cc3c(Nc4cccc(Br)c4)ncnc3cc21 | > 10 µM |
| Brc1cccc(Nc2ncnc3c2ccc2ccccc23)c1 | > 10 µM |
| Cc1cccc(Nc2ncnc3cc4c(cc23)n(C)c(=O)n4C)c1 | > 10 µM |
| FC(F)(F)c1cccc(Nc2ncnc3c2ccc2ccccc23)c1 | > 10 µM |
| CS(=O)(=O)Nc1cccc(Nc2ncnc3cc4c(cc23)OCO4)c1 | > 10 µM |
| Cn1c(=O)n(C)c2cc3c(Nc4cccc(C(F)(F)F)c4)ncnc3cc21 | > 10 µM |
| Cc1cccc(Nc2ncnc3cc4c(cc23)OCCO4)n1 | > 10 µM |
| Cc1ccnc(Nc2ncnc3cc4c(cc23)OCO4)c1 | > 10 µM |
